The values that follow come from patent publication US10308659B2, “Pyridine derivatives” (Hoffmann-La Roche Inc., priority 2013, dated 2019).

In one experiment the target is human CB2 receptors (Homo sapiens (Human), UniProt P34972). Nature of the experiment: cAMP assay, CHO cells expressing human CB2 receptors. It is filed as cell-based. The settings on record: functional cAMP assay, CHO cells expressing human CB2; read-out: EC50 CB2 human. The protocol:
(§1) CHO cells expressing human CB1 or CB2 receptors are seeded 17-24 hours prior to the experiment 50.000 cells per well in a black 96 well plate with flat clear bottom (Corning Costar #3904) in DMEM (Invitrogen No. 31331), 1×HT supplement, with 10% fetal calf serum and incubated at 5% CO2 and 37° C. in a humidified incubator. The growth medium was exchanged with Krebs Ringer Bicarbonate buffer with 1 mM IBMX and incubated at 30° C. for 30 min. Compounds were added to a final assay volume of 100 μl and incubated for 30 min at 30° C. […] The time-resolved energy transfer is measured by a TRF reader (Evotec Technologies GmbH), equipped with a ND:YAG laser as excitation source. The plate is measured twice with the excitation at 355 nm and at the emission with a delay of 100 ns and a gate of 100 ns, total exposure time 10 s at 730 (bandwidth30 nm) or 645 nm (bandwidth 75 nm), respectively. The FRET signal is calculated as follows: FRET=T730-Alexa730-P(T645-B645) with P=Ru730-B730/Ru645-B645, where T730 is the test well measured at 730 nM, T645 is the test well measured at 645 nm, B730 and B645 are the buffer controls at 730 nm and 645 nm, respectively. cAMP content is determined from the function of a standard curve spanning from 10 μM to 0.13 nM cAMP.
(§2) EC50 values were determined using Activity Base analysis (ID Business Solution, Limited).
On the technique in general: cAMP levels reflect the balance of adenylyl cyclase and phosphodiesterase activity.

The target in the next experiment is human CB1 receptors (Homo sapiens (Human), UniProt P21554). Nature of the experiment: cAMP assay, CHO cells expressing human CB1 receptors. Type of experiment: cell-based. The note with it: functional cAMP assay, CHO cells expressing human CB1; read-out: EC50 CB1 human. The protocol: as §1, §2
Sequence of human CB1 receptors (P21554 whole entry): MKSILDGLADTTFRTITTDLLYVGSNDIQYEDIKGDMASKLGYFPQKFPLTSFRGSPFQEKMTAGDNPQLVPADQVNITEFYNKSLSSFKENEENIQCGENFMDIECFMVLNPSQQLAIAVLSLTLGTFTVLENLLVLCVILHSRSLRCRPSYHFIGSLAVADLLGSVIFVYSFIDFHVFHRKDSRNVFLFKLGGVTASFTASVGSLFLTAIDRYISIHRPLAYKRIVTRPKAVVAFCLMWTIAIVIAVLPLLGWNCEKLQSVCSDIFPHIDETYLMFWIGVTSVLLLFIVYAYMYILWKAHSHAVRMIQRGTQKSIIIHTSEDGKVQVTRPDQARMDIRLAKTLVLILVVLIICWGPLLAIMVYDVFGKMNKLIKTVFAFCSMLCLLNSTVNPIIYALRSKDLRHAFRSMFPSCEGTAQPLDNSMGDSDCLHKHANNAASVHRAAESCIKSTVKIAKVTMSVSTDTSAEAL

Sequence of human CB2 receptors (P34972 whole entry): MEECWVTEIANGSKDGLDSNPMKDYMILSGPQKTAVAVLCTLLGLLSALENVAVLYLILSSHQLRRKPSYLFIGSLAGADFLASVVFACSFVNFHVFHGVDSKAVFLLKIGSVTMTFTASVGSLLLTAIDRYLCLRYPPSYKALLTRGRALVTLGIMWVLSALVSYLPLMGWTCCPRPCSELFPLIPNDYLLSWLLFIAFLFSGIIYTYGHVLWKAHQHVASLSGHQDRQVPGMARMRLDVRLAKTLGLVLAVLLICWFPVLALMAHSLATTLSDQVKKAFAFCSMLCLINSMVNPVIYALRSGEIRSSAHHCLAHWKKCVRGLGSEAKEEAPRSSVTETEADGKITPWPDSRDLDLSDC

As to `CCc1nc(-c2cc(OCC3CC3)c(C3CC3)cn2)no1` [Example 13, 3-[5-cyclopropyl-4-(cyclopropylmethoxy)pyridin-2-yl]-5-ethyl-1,2,4-oxadiazole], the results for the EC50 on human CB2 receptors and at human CB1 receptors were 31.9 nM and over 10000 nM, respectively. On the same counts, the results for `CC(C)(C)c1nc(-c2cc(Oc3cccc(S(C)(=O)=O)c3)c(C3CC3)cn2)no1` [Example 108, 5-tert-butyl-3-[5-cyclopropyl-4-(3-methylsulfonylphenoxy)pyridin-2-yl]-1,2,4-oxadiazole] are 69.8 nM and over 10000 nM. On the same counts, the results for `CC(C)C1(C)N=C(c2cc(OCC(F)(F)F)c(C3CC3)cn2)NC1=O` (stereo not shown) [Example 66, 2-[5-cyclopropyl-4-(2,2,2-trifluoroethoxy)pyridin-2-yl]-4-methyl-4-propan-2-yl-1H-imidazol-5-one] are 9 nM and over 10000 nM.

With `C[C@H](Oc1cc(-c2nnc(C(C)(C)C)o2)ncc1C1CC1)C(F)(F)F` [Example 120, 2-tert-butyl-5-[5-cyclopropyl-4-[(2S)-1,1,1-trifluoropropan-2-yl]oxypyridin-2-yl]-1,3,4-oxadiazole], the EC50 at human CB2 receptors is 63 nM; on human CB1 receptors, over 10000 nM.

With `CC(C)(C)c1nc(-c2cc(OCc3ccc(F)cn3)c(C3CC3)cn2)no1` [Example 118, 5-tert-butyl-3-[5-cyclopropyl-4-[(5-fluoropyridin-2-yl)methoxy]pyridin-2-yl]-1,2,4-oxadiazole], the EC50 was 35 nM on human CB2 receptors and over 10000 nM at human CB1 receptors. As to `CC(C)(C)c1nc(-c2cc(OCC(F)(F)F)c(S(C)(=O)=O)cn2)no1` [Example 67, 5-tert-butyl-3-[5-methylsulfonyl-4-(2,2,2-trifluoroethoxy)pyridin-2-yl]-1,2,4-oxadiazole], the EC50 on human CB2 receptors is 434 nM; at human CB1 receptors it was over 10000 nM. On to `CC(C)(C)c1c[nH]c(-c2cc(OCC(F)(F)F)c(N3CC(F)(F)C3)cn2)n1` [Example 64, 2-(5-tert-butyl-1H-imidazol-2-yl)-5-(3,3-difluoroazetidin-1-yl)-4-(2,2,2-trifluoroethoxy)pyridine], for which the EC50 is 87.5 nM at human CB2 receptors and over 10000 nM on human CB1 receptors. On the same counts, the results for `CC(C)(C)c1nc(-c2cc(OCC3(F)COC3)c(C3CC3)cn2)no1` [Example 105, 5-tert-butyl-3-[5-cyclopropyl-4-[(3-fluorooxetan-3-yl)methoxy]pyridin-2-yl]-1,2,4-oxadiazole] are 29.1 nM and over 10000 nM. Consider `CC(C)(C)c1noc(-c2cc(OCC(F)(F)F)c(N3CC(F)(F)C3)cn2)n1` [Example 17, 3-tert-butyl-5-[5-(3,3-difluoroazetidin-1-yl)-4-(2,2,2-trifluoroethoxy)pyridin-2-yl]-1,2,4-oxadiazole], for which the 50% effective concentration (EC50) on human CB1 receptors is over 10000 nM. Turning to `c1c(-c2nc(C3CCCC3)no2)ncc(C2CC2)c1OCC1CC1` [Example 4, 3-cyclopentyl-5-[5-cyclopropyl-4-(cyclopropylmethoxy)pyridin-2-yl]-1,2,4-oxadiazole], the EC50 on human CB2 receptors is 2.1 nM; on human CB1 receptors it was over 10000 nM. The like results for `CCC1(C)N=C(c2cc(OCC(F)(F)F)c(C3CC3)cn2)NC1=O` (stereo not shown) [Example 68, 2-[5-cyclopropyl-4-(2,2,2-trifluoroethoxy)pyridin-2-yl]-4-ethyl-4-methyl-1H-imidazol-5-one] were, in that order, 72.6 nM and over 10000 nM. The like results for `CC(C)(C)c1nc(-c2cc(OCC3CC3)c(S(C)(=O)=O)cn2)no1` [Example 43, 5-tert-butyl-3-[4-(cyclopropylmethoxy)-5-methylsulfonylpyridin-2-yl]-1,2,4-oxadiazole] were, in that order, 40.9 nM and over 10000 nM. The like results for `FC(F)(F)COc1cc(C2=NC3(CCCCC3)CO2)ncc1C1CC1` [Example 31, 2-[5-cyclopropyl-4-(2,2,2-trifluoroethoxy)pyridin-2-yl]-3-oxa-1-azaspiro[4.5]dec-1-ene] were, in that order, 19.4 nM and over 10000 nM. `CC(C)(C)c1nc(-c2cc(OC3CCCNC3)c(C3CC3)cn2)no1` (stereo not shown) [Example 104, 5-tert-butyl-3-(5-cyclopropyl-4-piperidin-3-yloxypyridin-2-yl)-1,2,4-oxadiazole]: the EC50 on human CB2 receptors was 69.8 nM; at human CB1 receptors it was over 10000 nM.

Consider `FC(F)(F)c1nc(-c2cc(OCC3CC3)c(C3CC3)cn2)no1` [Example 19, 3-[5-cyclopropyl-4-(cyclopropylmethoxy)pyridin-2-yl]-5-(trifluoromethyl)-1,2,4-oxadiazole], for which the EC50 at human CB2 receptors is 13.7 nM; at human CB1 receptors it was over 10000 nM.

On to `Cc1nc(C2(C)COC(c3cc(OCC(F)(F)F)c(C4CC4)cn3)=N2)no1` (stereo not shown) [Example 111, 3-[2-[5-cyclopropyl-4-(2,2,2-trifluoroethoxy)pyridin-2-yl]-4-methyl-5H-1,3-oxazol-4-yl]-5-methyl-1,2,4-oxadiazole], for which the EC50 is 57.6 nM at human CB2 receptors and over 10000 nM on human CB1 receptors.

As for `Cc1nc(COc2cc(-c3noc(C(C)(C)C)n3)ncc2C2CC2)c(C)o1` [Example 106, 5-tert-butyl-3-[5-cyclopropyl-4-[(2,5-dimethyl-1,3-oxazol-4-yl)methoxy]pyridin-2-yl]-1,2,4-oxadiazole], the EC50 on human CB2 receptors was 128 nM; on human CB1 receptors, over 10000 nM.

`CC(C)(C)c1nc(-c2cc(OCC(F)(F)F)c(Cl)cn2)no1` [Example 70, 5-tert-butyl-3-[5-chloro-4-(2,2,2-trifluoroethoxy)pyridin-2-yl]-1,2,4-oxadiazole]: the EC50 on human CB2 receptors was 5.7 nM; on human CB1 receptors it was over 10000 nM.

For the compound `CC1(c2nc(-c3cc(OCC4CC4)c(C4CC4)cn3)no2)COC1` [Example 28, 3-[5-cyclopropyl-4-(cyclopropylmethoxy)pyridin-2-yl]-5-(3-methyloxetan-3-yl)-1,2,4-oxadiazole], the values for the EC50 on human CB2 receptors and on human CB1 receptors were 16 nM and over 10000 nM, respectively.

Consider `COCc1nc(-c2cc(OCC3CC3)c(C3CC3)cn2)no1` [Example 12, 3-[5-cyclopropyl-4-(cyclopropylmethoxy)pyridin-2-yl]-5-(methoxymethyl)-1,2,4-oxadiazole], for which the EC50 at human CB2 receptors was 46.6 nM; on human CB1 receptors, over 10000 nM. On the same counts, the results for `CC(C)(C)c1nc(-c2cc(N3CCOCC3)c(C3CC3)cn2)no1` [Example 78, 4-[2-(5-tert-butyl-1,2,4-oxadiazol-3-yl)-5-cyclopropylpyridin-4-yl]morpholine] are 42.2 nM and over 10000 nM. On the same counts, the results for `CC(C)(C)c1noc(-c2cc(OCC(F)(F)F)c(C3CC3)cn2)n1` [Example 40, 3-tert-butyl-5-[5-cyclopropyl-4-(2,2,2-trifluoroethoxy)pyridin-2-yl]-1,2,4-oxadiazole] are 2.2 nM and over 10000 nM. For `CC(C)(C)c1nc(-c2cc(OCC(F)(F)F)c(N3CC(F)(F)C3)cn2)no1` [Example 44, 5-tert-butyl-3-[5-(3,3-difluoroazetidin-1-yl)-4-(2,2,2-trifluoroethoxy)pyridin-2-yl]-1,2,4-oxadiazole], the EC50 on human CB1 receptors is over 10000 nM. For the compound `FC(F)(F)COc1cc(-c2nc(C3CC3)no2)ncc1C1CC1` [Example 7, 3-cyclopropyl-5-[5-cyclopropyl-4-(2,2,2-trifluoroethoxy)pyridin-2-yl]-1,2,4-oxadiazole], at human CB1 receptors, the EC50 was over 10000 nM. In the case of `c1c(C2=NC3(CCCCC3)CO2)ncc(C2CC2)c1OCC1CC1` [Example 22, 2-[5-cyclopropyl-4-(cyclopropylmethoxy)pyridin-2-yl]-3-oxa-1-azaspiro[4.5]dec-1-ene], on human CB2 receptors, the EC50 was 4.2 nM. For `CC(C)(O)c1nc(-c2cc(OCC3CC3)c(C3CC3)cn2)no1` [Example 26, 2-[3-[5-cyclopropyl-4-(cyclopropylmethoxy)pyridin-2-yl]-1,2,4-oxadiazol-5-yl]propan-2-ol], at human CB1 receptors, the EC50 is over 10000 nM. Take `CC(C)(C)c1nc(-c2cc(N3CCC4(COC4)C3)c(C3CC3)cn2)no1` [Example 76, 7-[2-(5-tert-butyl-1,2,4-oxadiazol-3-yl)-5-cyclopropylpyridin-4-yl]-2-oxa-7-azaspiro[3.4]octane]: the EC50 on human CB1 receptors was over 10000 nM. Same read-out and setting: for `CC1(c2nc(-c3cc(OCC(F)(F)F)c(C4CC4)cn3)no2)CC1` [Example 34, 3-[5-cyclopropyl-4-(2,2,2-trifluoroethoxy)pyridin-2-yl]-5-(1-methylcyclopropyl)-1,2,4-oxadiazole] the value was over 10000 nM. With `CC(C)(C)c1nc(-c2cc(OCC3COCCN3)c(C3CC3)cn2)no1` (stereo not shown) [Example 102, 3-[[2-(5-tert-butyl-1,2,4-oxadiazol-3-yl)-5-cyclopropylpyridin-4-yl]oxymethyl]morpholine], the EC50 at human CB1 receptors is over 10000 nM. Same read-out and setting: to `CC(C)(C)c1nc(-c2cc(OCc3ccc(F)cc3)c(C3CC3)c(Cl)n2)no1` [Example 112, 5-tert-butyl-3-(6-chloro-5-cyclopropyl-4-(4-fluorobenzyloxy)pyridin-2-yl)-1,2,4-oxadiazole] belongs 73.2 nM. Consider `CC(C)(C)c1nnc(-c2cc(OCC(F)(F)F)c(C3CC3)cn2)o1` [Example 113, 2-tert-butyl-5-[5-cyclopropyl-4-(2,2,2-trifluoroethoxy)pyridin-2-yl]-1,3,4-oxadiazole], for which, at human CB1 receptors, the EC50 was over 10000 nM.

One may read the EC50 as the concentration needed to bring the measured effect to its halfway point.
